# Experimental data taken from article PMC8533219, “Evaluation of the Antioxidant, Antidiabetic, and Antiplasmodial Activities of Xanthones Isolated from Garcinia forbesii and Their In Silico Studies” (Biomedicines, 2021).
# “And” between values parts separate entries of the source, which are not always exact repeats. Equal values may be shown once. Read-outs that look alike come from different tables or passages of the source.
# Experiments:
# [1] = set-up: method as in PMID 33711431; settings: read-out: DPPH scavenging IC50; cited from earlier work
# [2] = target: rat intestinal α-glucosidase; assay: Rat intestinal α-glucosidase inhibitory activity; format: biochemical; settings: IC50 > 1000 μM = inactive
# Experimental: The inhibitory activity of rat intestinal α-glucosidase was determined according to previously reported method with slight modifications. This procedure was performed by classifying four mixtures in different groups. The mixture (1) labelled “Blank of enzyme reaction” contained the mixture and DMSO (10 µL), sodium phosphate buffer (50 µL), glucose kit (80 µL), enzyme (20 µL) and substrate (20 µL maltose, sucrose 20 µL). A 10 µL of sample and samples with various concentrations of compounds was added to the well Plates (3) and (4). A 50 µL of sodium phosphate buffer (pH 6.9) was then added to well Plates (1) and (3), and a 30 µL of the buffer was added to well Plates (2) and (4), respectively. The substrate (maltose, 20 µL; sucrose 20 µL) was then added to the Plates (2) and (4). A glucose kit (80 µL each) and the enzyme (20 µL) were added to all plates and were incubated for 10 min for maltose and 40 min for sucrose. Finally, the absorbance was then measured at λ = 520 nm using a microplate reader (BioTek ELx800TM, BioTek Instruments, Inc., Winooski, VT, USA).
# [3] = Ferric reducing-antioxidant power (FRAP) assay; settings: for FRAP: reduction power
# Experimental: The FRAP assay was determined according to the described method using 300 mM acetate buffer, 40 mM HCl, 10 mM (2,4,6 Tris(2-pyridyl)-s-triazine (TPTZ)), 20 mM FeCl3·6H2O. For standard curve comparison, a 10:1:1 (acetate buffer: TPTZ: H2O) and sample ratio 10:1:1 (acetate buffer: TPTZ: FeCl3·6H2O) were constructed. The standard curve was prepared using various concentrations of FeSO4·7H2O. The reaction mixture was incubated at 37 °C for 30 min followed by measurement of the absorbance at 593 nm. In this test, the reduction capacity of the tested compound calculated concerning the reaction signal given by the Fe^2+ solution. The FRAP value was expressed as µM Fe^2+/g ((Frap value of sample (µM) = abs (sample) × FRAP value of std (µM)/abs (std).
# P. falciparum strain 3D7 = assay: In vitro antiplasmodial assay (pLDH method); format: cell-based; settings: Plasmodium falciparum; for inhibition at 10 µg/mL: read-out: % Inhibition (10 μg/mL)
# Experimental: The parasites used in this test were synchronized (Ring stage) with ± 0.3% parasitemia (2% hematocrit). […] The well plates were put in the chamber with mix gas atmosphere (O2 5%, CO2 5% and N2 90%) and incubated for 72 h at 37 °C. After that, the plate was harvested and stored at −30 °C. After 24 h, the pLDH assay was performed by reading the absorbance at 650 nm using a SpectraMax Paradigm® Multi-Mode microplate reader.
# Plasmodium falciparum = settings: read-out: IC50 against Plasmodium falciparum; cited from earlier work
# [4] = DPPH radical scavenging assay; settings: for IC50: IC50 > 1000 μM = inactive
# Experimental: DPPH (1,1-diphenyl-2-picrylhydrazyl) was used for the antioxidant test using quercetin and gallic acid as controls. The compounds were diluted at concentrations of 159.73, 79.87, 39.93, 19.97, 9.98 µg/mL. A total 1 mL of DPPH 6 × 10^−5 M solution, complete with 33 µL of the compound, was incubated at 37 °C for 20 min. […] The radical inhibitory activity was calculated using the equation [(Ab-As)/Ab] × 100%.
# [5] = ABTS radical scavenging assay; settings: for IC50: IC50 > 1000 μM = inactive
# Experimental: The antioxidant activity was also determined by free radical ABTS (2,2″-azinobis (3-ethyl benzothiazoline-6-sulfonic acid) according to the reported procedure. In this test, 7 mM ABTS solution was prepared and mixed with a buffer solution of potassium peroxydisulfate, incubated for 16 h, and protected from light. A total of 10 μL of the sample and 1 mL of the ABTS was incubated for 4 min and measured at a wavelength of 734 nm. This experiment was performed triplo using quercetin and gallic acid as controls. The ABTS inhibitory activity was calculated by the equation [(Ab-As)/Ab] × 100%.
# [6] = target: T1, Porcine pancreatic α-amylase (Sus scrofa, UniProt P00690); assay: α-Amylase inhibitory activity; format: biochemical; settings: read-out: α-Amylase Starch IC50
# T1 sequence (P00690 16-511): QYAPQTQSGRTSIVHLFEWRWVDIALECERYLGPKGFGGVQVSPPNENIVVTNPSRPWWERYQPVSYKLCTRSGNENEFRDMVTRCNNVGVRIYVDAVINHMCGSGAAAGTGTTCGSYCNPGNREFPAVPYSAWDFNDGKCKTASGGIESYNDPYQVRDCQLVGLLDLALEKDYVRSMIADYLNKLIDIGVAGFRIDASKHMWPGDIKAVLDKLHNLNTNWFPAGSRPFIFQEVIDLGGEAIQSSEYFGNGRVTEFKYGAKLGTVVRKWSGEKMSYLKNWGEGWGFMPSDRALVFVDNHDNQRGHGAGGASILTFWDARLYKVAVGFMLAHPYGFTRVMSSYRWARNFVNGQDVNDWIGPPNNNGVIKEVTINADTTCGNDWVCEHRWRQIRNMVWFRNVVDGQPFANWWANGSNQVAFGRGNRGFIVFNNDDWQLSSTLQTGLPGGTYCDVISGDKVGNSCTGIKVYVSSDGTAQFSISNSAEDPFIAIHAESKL
# Experimental: The modified α-amylase enzyme inhibition test was conducted for antidiabetic activity evaluation. A total of 10 mg sample was dissolved in 1 mL DMSO and 0.1 M phosphate buffer and 5 mg α-amylase solution (Porcine pancreatic α-amylase) in 1 mL phosphate buffer pH 6.9 was added. A 100 mg of potato starch (substrate) was heated in 5 mL of 0.1 M phosphate buffer for 5 min and cooled to room temperature. Then, 20 µL of the sample and 50 µL of substrate were mixed into 30 µL of phosphate buffer. The mixture was pre-incubated for 5 min followed by the addition of 20 µL of α-amylase enzyme and then incubation at 37 °C for 15 min. The color development was performed by adding 50 µL of 1M HCl and 50 µL of 10% iodine solution. Finally, the absorbance was measured at a wavelength of 650 nm.
# α-glucosidase = settings: cited from earlier work
# [7] = substrate maltose, read-out: α-Glucosidase Maltose IC50
# [8] = substrate sucrose, read-out: α-Glucosidase Sucrose IC50
# [9] = P. falciparum 3D7, 10 μg/mL, 72 h
# [10] = P. falciparum 3D7, 72 h, read-out: IC50
Compound,"IC50 [2, 7]","IC50 [2, 8]",FRAP [3],IC50 [4],IC50 [5],IC50 [6],inhibition at 10 µg/mL (P. falciparum strain 3D7; [9]),DPPH % Inhibition (159.7 μg/mL) [4],ABTS % Inhibition (99 μg/mL) [5],other results
"O=c1c2cc(O)c(O)cc2oc2cc(O)cc(O)c12 [1,3,6,7-tetrahydroxyxanthone]",,,,,,,,,,IC50 [1]: 28.4 µM
"C[C@H]1O[C@H](O[C@H]2[C@H](O)[C@@H](O)[C@@H](O[C@H]3[C@H](O)[C@@H](O)C(O)O[C@@H]3CO)O[C@@H]2CO)[C@H](O)[C@@H](O)[C@@H]1N[C@H]1C=C(CO)[C@@H](O)[C@H](O)[C@H]1O (stereo partly drawn) [Acarbose, reference compound]",3.4 ± 0.27 µM,4.6 ± 0.51 µM,,,,,,,,
"O=C1O[C@H]([C@@H](O)CO)C(O)=C1O [Ascorbic acid, reference compound]",,,30.6 ± 0.27 µM Fe^2+/g,,,,,,,FRAP ([3]; listed as ascorbic acid): 30.6 µM Fe^2+/g; IC50 [1]: 48 µM
"CCN(CC)CCCC(C)Nc1ccnc2cc(Cl)ccc12 (stereo not drawn) [Chloroquine, reference compound]",,,,,,,,,,"IC50 (P. falciparum strain 3D7; 3D7, 72 h): 0.006 ± 0.01 µM; inhibition at 10 µg/mL (P. falciparum strain 3D7; 3D7, 72 h): 98.8 ± 0.25%; IC50 (Plasmodium falciparum): 0.3 µM"
"COc1cc(C)c2c(=O)c3c(O)cc(OC)cc3oc2c1 [Compound 1, lichexanthone]",> 1000 µM,> 1000 µM,5.7 ± 0.57 µM Fe^2+/g,> 1000 µM,> 1000 µM,> 1000 µM,< 10%,,,α-Glucosidase Maltose IC50 ([2]; substrate maltose): inactive; α-Glucosidase Sucrose IC50 ([2]; substrate sucrose): inactive
"C=CC(C)(C)c1cc(O)c(O)c2c(=O)c3cc4c(c(O)c3oc12)OC(C)(C)C=C4 [Compound 2, subelliptenone H]",,43.8 ± 1.51 µM,166.3 µM Fe^2+/g and 166.3 ± 1.47 µM Fe^2+/g,19.4 ± 0.15 µM,2.7 ± 0.05 µM,41.3 ± 1.24 µM,86.8 ± 0.33%,95.29 ± 0.05%,97.29 ± 0.04%,IC50 (P. falciparum strain 3D7; [10]): 3.3 ± 0.04 µM
"C=CC(C)(C)c1cc(O)c2oc3c(O)cccc3c(=O)c2c1O [Compound 3, 12b-hydroxy-des-D-garcigerrin A]",109 ± 1.31 µM,79.6 ± 2.01 µM,203.9 ± 1.19 µM Fe^2+/g,18.9 ± 0.1 µM,0.05 ± 0.01 µM,28.7 ± 0.35 µM,87.9 ± 0.23%,96.83 ± 0.03%,98.31 ± 0.05%,"Iron reducing power, fold greater than ascorbic acid ([3]; relative to ascorbic acid): approximately 6 fold; ABTS IC50, fold lower than quercetin ([5]; relative to quercetin): 4 fold; IC50 (P. falciparum strain 3D7; [10]): 5 ± 0.04 µM"
"C=CC(C)(C)c1cc(O)c2oc3c4c(ccc3c(=O)c2c1O)C=CC(C)(C)O4 [Compound 4, garciniaxanthone B]",139.4 ± 1.21 µM,75.9 ± 2.11 µM,192.7 µM Fe^2+/g and 192.7 ± 0.77 µM Fe^2+/g,14.1 ± 0.07 µM,7.9 ± 0.01 µM,10.8 ± 0.04 µM,< 10%,95.38 ± 0.08%,96.15 ± 0.01%,
"C=CC(C)(C)c1cc(O)c2oc3c4c(ccc3c(=O)c2c1O)[C@H](O)[C@H](O)C(C)(C)O4 [Compound 5, garcigerin A]",91 ± 1.14 µM,37.4 ± 1.2 µM,187.8 µM Fe^2+/g and 187.8 ± 1.36 µM Fe^2+/g,20.4 ± 0.22 µM,6.5 ± 0.02 µM,18.7 ± 0.54 µM,< 10%,96.60 ± 0.05%,97.40 ± 0.03%,
"O=C(O)c1cc(O)c(O)c(O)c1 [Gallic acid, reference compound]",,,,3 ± 0.01 µM,0.7 ± 0.01 µM,,,97.21± 0.01%,96.30 ± 0.01%,
"O=c1c(O)c(-c2ccc(O)c(O)c2)oc2cc(O)cc(O)c12 [Quercetin, reference compound]",,,,4.1 ± 0.01 µM,0.17 ± 0.01 µM,,,96.34 ± 0.01%,97.58 ± 0.01%,
CC(C)=CCc1c(O)cc2oc3c(CC=C(C)C)c(O)c(O)c(CC=C(C)C)c3c(=O)c2c1O [garcinone E],,,,,,,,,,IC50 [1]: 63.1 µM
CC(C)=CCC/C(C)=C/Cc1c(O)c(O)cc2oc3cc(O)c(CC=C(C)C)c(O)c3c(=O)c12 [norcowanin],,,,,,,,,,IC50 (α-glucosidase): 1.7 µM
garcinoxanthones SV,,,,,,,,,,IC50 [1]: 68.5 µM
subelliptenone F,,,,,,,,,,IC50 (α-glucosidase): 4.1 µM
